Measurements: patent publication US20030187048A1, “Method for inhibiting skin lesion formation using histamine as the active ingredient” (priority 1991, published 2003)
Where “and” joins values, the source holds several entries; their conditions need not be identical. Equal entries are not always repeated. Where two headings read alike, the source gives them in different places.

Assays:
thermal burn injuries = conditions: for Height in mm of Blister / Height in mm of Swelling of Soft Tissue Surrounding Burn Site / Subjective Evaluation of Tenderness on Palpations (rated 0 to 5) / Zone of Erythema Surrounding Burn Site (mm): per burn site
[1] = system: active herpes labialis lesions; conditions: 0.0275% gel
Source text: An additional gel concentration (0.0275%) was' used on two patients for active herpes labialis lesions.

Allergic Conjunctivitis = system: Allergic Conjunctivitis
Protocol: (§1) The composition of the present invention includes initial preparation of a gel base by adding 0.8% CARBOPOL 940, which is a vinyl polymer, to distilled water. This mixture was allowed to stand for several hours until the polymer was wetted and a gel was formed. This mixture then was blended by means of a ordinary high speed mixer, such as a Lightning Labmaster II until a homogenous mixture is formed. At this point, a neutralizing and emulsifying agent such as an amino alcohol was added, forming an emulsion. […] This composition then was applied topically to various types of lesions, as subsequently described. […] Propylparaben or methylparaben may be used as a preservative. For “unidose” dispensers containing only two to three drops, no preservatives are used, as it is known that preservatives in ophthalmic solutions frequently cause undesirable side effects. The term semi-synthetic water soluble polymer as used herein includes hydroxy methylcellulose or carboxy methylcellulose. Carbopol is widely available in different viscosities.
Treatment consisted of topical ophthalmic application of both ophthalmic solution concentrations to their randomly assigned patients 2 times a day for 5 days. […] Each patient was clinically evaluated at 48 hours and 120 hours following the initiation of treatment for 2 parameters of tissue damage associated with Allergic Conjunctivitis. In addition, each patient was asked to evaluate subjectively 3 symptoms associated with Allergic Conjunctivitis 48 hours and 120 hours after treatment initiation. The percent reduction from the initial presentation of each of the parameters of tissue damage and the initial presentation for each additional symptom evaluated was calculated from 48 and 120 hour post treatment initiation data.
Patients were randomly assigned to one of two active levels being evaluated.
Clinical evaluation was performed at 48 hours and 120 hours post treatment initiation. Each patient was asked to subjectively evaluate 3 additional symptoms associated with Allergic Conjunctivitis by rating each symptom on a scale of 0 to 5 with 0 representing no evidence of symptom and 5 representing the greatest evidence of the symptom ever by the patient. clinical evaluation of tissue damage parameters was also done using the same scale of 0 to 5.
Patient compliance with the treatment regimen and the use of other medications was also evaluated.

herpes genitalis lesions = conditions: for Burning score / Local pain score: scale 0 to 5; for Reduction in Complete Healing Time: vs usual episode
Protocol: Treatment consisted of topical application three times a day for a period of five days. […] The percent reduction in complete healing time as compared to a usual episode was evaluated grouping the two patients who received active gel concentrations together and comparing to the two patients receiving placebo gel.
Each patient was contacted daily for 5 days for his or her estimate of the symptomatic relief of 6 common symptoms associated with genital herpes as well as the patient's interpretation of total healing of the episode. In an attempt to quantify responses, patients were asked to rate each symptom on a scale of 0 to 5 with 0 representing no evidence of the symptom and 5 representing the worst or most prominent evidence of the symptom ever for the patient. Subject compliance with the study regimen and the use of other medications was also assessed.

[2] = system: herpetic stomatitis lesions (fever blisters or cold sores)
Protocol: as §1

[3] = system: aphthous ulcers (canker sores); conditions: 0.0067% IEP gel; aphthous stomatitis
Protocol: as §1

[4] = 0.0045% gel, from greatest value of that burn site
[5] = 0.009% gel, from greatest value of that burn site
[6] = 0.0067% ophth soln, 48 hrs, per patient
[7] = 0.0067% ophth soln, 120 hrs, per patient
[8] = 0.0067% ophth soln, scale 0 to 5, per patient
[9] = 0.0067% IEP gel, herpes labialis

## NCCc1c[nH]cn1 [IEP, 1H-imidazole-4-ethanamine,phosphate]
Thermal burn injuries; 0.0045% gel, 3.5 hours
  Height in mm of Blister: 3 mm and 2 mm
  Height in mm of Swelling of Soft Tissue Surrounding Burn Site: 1 mm
  Subjective Evaluation of Tenderness on Palpations (rated 0 to 5): 3 and 5
  Zone of Erythema Surrounding Burn Site (mm): 8 mm and 4 mm
Thermal burn injuries; 0.0045% gel, 8 hours
  Height in mm of Blister: 2.5 mm and 1.5 mm
  Height in mm of Swelling of Soft Tissue Surrounding Burn Site: 1 mm
  Subjective Evaluation of Tenderness on Palpations (rated 0 to 5): 2 and 4
  Zone of Erythema Surrounding Burn Site (mm): 6 mm and 3 mm
Thermal burn injuries; 0.0045% gel, 22 hours
  Height in mm of Blister: 1.5 mm and 1 mm
  Subjective Evaluation of Tenderness on Palpations (rated 0 to 5): 2 and 4
Thermal burn injuries; [4]
  % Reduction in Tissue Damage at 22 Hours: Height of Blister: 50.0%
  % Reduction in Tissue Damage at 22 Hours: Swelling of Surrounding Tissue: 100.0% and 50.0%
  % Reduction in Tissue Damage at 22 Hours: Zone of Erythema (mm): 66.7% and 81.3%
Thermal burn injuries; 0.009% gel, 3.5 hours
  Height in mm of Blister: 2 mm
  Height in mm of Swelling of Soft Tissue Surrounding Burn Site: 1 mm
  Subjective Evaluation of Tenderness on Palpations (rated 0 to 5): 2 and 3
  Zone of Erythema Surrounding Burn Site (mm): 6 mm and 4 mm
Thermal burn injuries; 0.009% gel, 8 hours
  Height in mm of Blister: 1 mm
  Height in mm of Swelling of Soft Tissue Surrounding Burn Site: 0 mm
  Subjective Evaluation of Tenderness on Palpations (rated 0 to 5): 2
  Zone of Erythema Surrounding Burn Site (mm): 4 mm and 3 mm
Thermal burn injuries; 0.009% gel, 22 hours
  Height in mm of Swelling of Soft Tissue Surrounding Burn Site: 0 mm
  Subjective Evaluation of Tenderness on Palpations (rated 0 to 5): 1
  Zone of Erythema Surrounding Burn Site (mm): 2 mm
Thermal burn injuries; [5]
  % Reduction in Tissue Damage at 22 Hours: Height of Blister: 75.0% and 100.0%
  % Reduction in Tissue Damage at 22 Hours: Swelling of Surrounding Tissue: 100.0%
  % Reduction in Tissue Damage at 22 Hours: Tenderness on Palpation: 80.0%
  % Reduction in Tissue Damage at 22 Hours: Zone of Erythema (mm): 77.8% and 75.0%
Thermal burn injuries; 0.009% vs placebo, p<.O1 for 3 of the 4 parameters, fourth p<0.05
  Difference in tissue damage parameters vs placebo: highly significant
Thermal burn injuries; in vivo
  Untoward events or significant complications: no untoward events or significant complications
[1]; p<0.05
  Difference in lesion decay rates vs placebo gel: statistically significant
[1]; per patient
  Standardized Decay Rate/24 hrs: 56.55 and 36.36
Allergic Conjunctivitis; [6]
  Edema, Percent Reduction from Pre-Treatment Value: 66.67% and 50.0% and 100.0%
  Itching, Percent Reduction from Pre-Treatment Value: 100.0% (2×) and 50.0%
  Level of Discomfort, Percent Reduction from Pre-Treatment Value: 66.67% and 75.0% and 100.0%
  Redness, Percent Reduction from Pre-Treatment Value: 66.67% (2×) and 75.0%
  Tearing, Percent Reduction from Pre-Treatment Value: 100.0% and 50.0%
Allergic Conjunctivitis; [7]
  Edema, Percent Reduction from Pre-Treatment Value: 100.0%
  Itching, Percent Reduction from Pre-Treatment Value: 100.0%
  Level of Discomfort, Percent Reduction from Pre-Treatment Value: 66.7% and 100.0% (2×)
  Redness, Percent Reduction from Pre-Treatment Value: 100.0% and 75.0% and 66.67%
  Tearing, Percent Reduction from Pre-Treatment Value: 100.0% (2×) and 75.0%
Allergic Conjunctivitis; [8]
  Conjunctival Injection or Redness, Value at 48 Hours: 1 (2×) and 3
  Edema, Value at 120 Hours: 0
  Itching, Value at 120 Hours: 0
Allergic Conjunctivitis; 0.0067% ophthalmic solution
  Difference in percent reduction of tissue damage parameters and symptoms vs placebo ophthalmic solution: either significant (p<0.05) or highly significant (p<.O1)
Allergic Conjunctivitis; in vivo
  Untoward effects: no untoward effects
Herpes genitalis lesions; 0.0275% IEP gel, day 1
  Burning score: 3
Herpes genitalis lesions; 0.0275% IEP gel, day 1 of treatment
  Local pain score: 3
Herpes genitalis lesions; 0.0275% IEP gel, day 2
  Burning score: 0
  Local pain score: 0
Herpes genitalis lesions; 0.0275% IEP gel, day 3
  Burning score: 0
  Local pain score: 0
Herpes genitalis lesions; 0.0275% IEP gel, day 4
  Burning score: 0
  Local pain score: 0
Herpes genitalis lesions; 0.0275% IEP gel, day 5
  Burning score: 0
  Local pain score: 0
Herpes genitalis lesions; 0.0275% IEP gel, patient 603, usual healing time 7 days
  Healing Time: 1 days
Herpes genitalis lesions; 0.0275% IEP gel
  Reduction in Complete Healing Time: 85%
Herpes genitalis lesions; […] IEP gel, day 1
  Burning score: 3
  Local pain score: 4
Herpes genitalis lesions; […] IEP gel, day 2
  Burning score: 1
  Local pain score: 2
Herpes genitalis lesions; […] IEP gel, day 3
  Burning score: 0
  Local pain score: 2
Herpes genitalis lesions; […] IEP gel, day 4
  Burning score: 0
  Local pain score: 0
Herpes genitalis lesions; […] IEP gel, day 5
  Burning score: 0
  Local pain score: 0
Herpes genitalis lesions; […] IEP gel, patient 604, usual healing time 7 days
  Healing Time: 3.5 days
Herpes genitalis lesions; […] IEP gel
  Reduction in Complete Healing Time: 50%
Herpes genitalis lesions; combined […] and 0.0275% groups, p<0.05
  Difference in percent reduction in complete healing time vs placebo: significant
Herpes genitalis lesions; topical gel […], 0.0275%, three times a day for five days
  Untoward reactions: no untoward reactions
[2]; [9]
  Burning, reduction after 1 app.: 63%
  Burning, reduction after 1 day: 92%
  Estimated number of applications needed to eliminate clinical symptoms: 5
  Itching, reduction after 1 app.: %60
  Itching, reduction after 1 day: 97%
  Pain, reduction after 1 app.: 58%
  Pain, reduction after 1 day: 87%
  Percentage decrease in healing time compared to untreated episode: 49%
  Percentage of patients who experienced lesion abortion: 60%
  Size, reduction after 1 app.: 10%
  Size, reduction after 1 day: 32%
  Spreading, reduction after 1 app.: 40%
  Spreading, reduction after 1 day: 62%
  Swelling, reduction after 1 app.: %27
  Swelling, reduction after 1 day: 72%
[2]; 0.0067% gel applied at first sensation, both treatment groups (herpes labialis and aphthous ulcers)
  Fraction of total patients who experienced the abortion of lesions: Approximately two-thirds
[3]
  Burning, reduction after 1 app.: 20%
  Burning, reduction after 1 day: 40%
  Estimated number of applications needed to eliminate clinical symptoms: 9
  Pain, reduction after 1 app.: 73%
  Pain, reduction after 1 day: 80%
  Percentage decrease in healing time compared to untreated episode: 67%
  Percentage of patients who experienced lesion abortion: 67%
  Size, reduction after 1 app.: 23%
  Size, reduction after 1 day: 43%
  Swelling, reduction after 1 app.: 20%
  Swelling, reduction after 1 day: 50%
